Data reported in US20260373103A1, “COMPOSITIONS AND METHODS FOR PREVENTING CARDIOMYOPATHY” (OHIO STATE INNOVATION FOUNDATION, priority 2022, published 2026).
Entries after “also recorded” stand apart in the source; their conditions may differ.

Experiments:
mt-Keima mice = experiment: Echocardiographic analysis; assay type: in vivo, mouse; settings: 25 mg/kg/day i.p. for 5 days, vs vehicle
Experimental: The mt-Keima mouse. ST-539 was dissolved into 1% DMSO in Sesame oil and injected intraperitoneally (i.p.) at doses of 25 mg/kg/day with five total doses. Both male and female mice were used in this study. The control group received vehicle only. Echocardiographic measurements were taken using a Vevo3100 Visual Sonics (Visual Sonics) system. The mice were lightly anesthetized with isoflurane and the ejection fraction, fractional shortening, and ventricular chamber dimensions were determined using 2-D-guided M mode images. Ejection fraction, fractional shortening, ventricular chamber dimensions, and left ventricular mass were calculated automatically using the VevoLAB program. All experiments involving animals were approved by the Institutional Animal Care and Use Committee at The Ohio State University.

mitochondrial function = experiment: Mitochondrial function overall in cells; assay type: cell-based; settings: regardless of USP30 expression
Experimental: HeLa cells and mouse embryonic fibroblasts (MEFs) were grown in Dulbecco's minimum essential medium (DMEM) with 10% fetal bovine serum (FBS) supplemented with penicillin-streptomycin. HeLa Parkin, PINK1 KO cells, WT and MFN2 KO cells were previously described. Cells stably expressing USP30 were generated using lentiviral vectors of pLVX-Puro-Myc-USP30. The USP30 plasmid was obtained from Addgene. The plasmid was transferred into a lentiviral vector and viral particles were prepared by transiently transfecting HEK293T using standard methods. For the drug treatment experiments, cells were incubated in medium containing a mixture of 5 μM oligomycin and 5 μM antimycin A (A/O; see figures for treatment times). In 18 h treatment, A/O were used in combination with 10 μM quinolyl-valyl-O-methylaspartyl-[−2,6-difluorophenoxy]-methyl ketone (QVD), a broad-spectrum caspase inhibitor. ST51000539 (ST-539) was purchased from Tim Tec, Inc. Other chemicals were from Sigma-Aldrich (St. Louis, MO, USA). For FACS analysis, cells stably expressing mt-Keima were incubated in medium containing a mixture of […] antimycin A for 1.5 h. Prior to A/O treatment, cultures were treated with DMSO or ST-539 at 3 μg/ml. Cells were trypsinized, washed once with PBS buffer and then resuspended into 500 μl of PBS prior to analysis using a BD Fortessa flow cytometer as previously described.

NDP52 = NDP52 level after A/O, immunoblotting; assay type: cell-based; settings: Parkin positive cells, A/O 18 h, ST-539 3 μg/ml; not in WT HeLa or PINK1 KO cells
Experimental: HeLa cells and mouse embryonic fibroblasts (MEFs) were grown in Dulbecco's minimum essential medium (DMEM) with 10% fetal bovine serum (FBS) supplemented with penicillin-streptomycin. HeLa Parkin, PINK1 KO cells, WT and MFN2 KO cells were previously described. Cells stably expressing USP30 were generated using lentiviral vectors of pLVX-Puro-Myc-USP30. The USP30 plasmid was obtained from Addgene. The plasmid was transferred into a lentiviral vector and viral particles were prepared by transiently transfecting HEK293T using standard methods. For the drug treatment experiments, cells were incubated in medium containing a mixture of 5 μM oligomycin and 5 μM antimycin A (A/O; see figures for treatment times). In 18 h treatment, A/O were used in combination with 10 μM quinolyl-valyl-O-methylaspartyl-[−2,6-difluorophenoxy]-methyl ketone (QVD), a broad-spectrum caspase inhibitor. […]
Genetic suppression of USP30 in Parkin-overexpressing cells promotes the clearance of mitochondria in response to mitochondrial depolarizing agents. […] To investigate if the PINK 1/Parkin pathway is required for ST-539 induced mitophagy, we analyzed TOM20 ubiquitination in wild-type (WT) HeLa cells, which express little to no endogenous Parkin, as well as in WT and PINK1 knockout (KO) HeLa cells stably expressing YFP-tagged Parkin. […]

[1] = Plasma pharmacokinetics after i.p. injection; assay type: in vivo; settings: mice, 25 mg/kg i.p.
Experimental: ST-539 was dissolved into 1% DMSO in Sesame oil and injected intraperitoneally (i.p.) at doses of 25 mg/kg. Serial blood samples were collected at 0.083, 0.25, 0.5, 1, 2, 4 and 8 hours post dosing. Mice were euthanized at 24 hours post dosing. A terminal blood sample was collected by cardiac puncture followed by harvesting the brain and heart. Transcardial perfusion was performed prior to brain collection. The blood samples were placed in microtubes pretreated with K2EDTA as an anticoagulant and kept on ice until centrifugation. The tissue samples were rinsed using cold distilled water to remove blood, blotted dry, weighed and stored on dry ice until LC/MS/MS analysis. Plasma was transferred into polypropylene tubes or 96-well plates, quick frozen on dry ice, and stored at −70±10 °C until LC/MS/MS analysis.

USP30 = settings: in vitro; compound and similar structures; cited from earlier work

For CC(C)(C)NS(=O)(=O)c1cccc2c(NC(=O)C(Cc3ccccc3)NC(=O)c3ccccc3)cccc12 (stereo not drawn) [ST-539], the cardiac output (mt-Keima mice) was “similar; also recorded: does not appear to impact cardiac output”, the “ejection fraction (EF)” value (mt-Keima mice) was “similar; also recorded: minimal differences” and the “left ventricular posterior wall thickness (LVPWs)” value (mt-Keima mice) was “similar; also recorded: does not appear to impact”. The “effect on mitochondrial function” value (mitochondrial function) was “minimal effect on mitochondrial function; also recorded: marginally alters mitochondrial function”, the “reduction in NDP52 level relative to vehicle treated cells” value (NDP52) was “more significant reduction” and the “area under the plasma drug concentration-time curve (AUC)” value [1] was ~ 4.2 μg·h/ml. For the same compound, the “half-life (T1/2)” value [1] was “about 3.85 hr”, the “maximum plasma concentration (Cmax)” value [1] was “about 1.4 μg/ml” and the “time to reach peak plasma concentration (Tmax)” value [1] was 1.33 h. For the same compound, the AUC0-inf ([1]; plasma) was 4240 ng·h/mL, the AUC0-last ([1]; plasma) was 4162 ng·h/mL and the Cmax ([1]; plasma) was 1427 ng/mL. It also gave an MRT0-inf ([1]; plasma) of 4.27 h, an MRT0-last ([1]; plasma) of 3.86 h and a T1/2 ([1]; plasma) of 3.85 h. The Tlast ([1]; plasma) was 24.0 h, the Tmax ([1]; plasma) was 1.33 h and the “USP30 enzyme function inhibition” value (USP30) was “selectively inhibit USP30 enzyme function in vitro”.
